# Measurements: paper PMC7918049, “Juncaceae Species as Promising Sources of Phenanthrenes: Antiproliferative Compounds from Juncus maritimus Lam” (Molecules, 2021)
# Where two headings read alike, the source gives them in different places.
# How the values were obtained:
# [1] = test system: HeLa, HTB-26, T-47D, A2780, A2780cis, MCF-7, KCR and MRC-5 cell lines; assay: MTT antiproliferative assay, all cell lines investigated (overall statements); format: cell-based, human; conditions: 72 h, all cell lines tested
# Procedure: Breast cancer cell line MCF-7 (ATCC®® HTB-22) and the drug-resistant subline of the human breast cancer MCF-7 (ECACC 86012803; KCR) were purchased from LGC Promochem (Teddington, UK). Both cell lines were cultured in Eagle’s Minimal Essential Medium (EMEM, containing 4.5 g/L glucose) supplemented with a non-essential amino acid mixture, a selection of vitamins, and 10% heat-inactivated fetal bovine serum. In every third passage, 0.56 µg/mL doxorubicin was added to the medium in order to maintain the ABCB1 (P-glycoprotein) expression in KCR cells. A2780 human ovarian cancer cell line (ECACC European Collection of Authentical Cell Culture, Sigma Cat. no. 93112519) and the cisplatin-resistant human ovarian cancer cell line A2780cis (ECACC European Collection of Authentical Cell Culture, Sigma Cat. no. 93112517) were purchased from Merck KGaA (Darmstadt, Germany). The human ovarian cancer cell lines were cultured in RPMI 1640 medium supplemented with 10% heat-inactivated fetal bovine serum. […]
# The antiproliferative effect of the compounds was determined on the human breast (MCF-7, KCR, T-47D, HTB-26), cervical (HeLa), and ovarian (A2780, A2780cis) cancer cells, and on MRC-5 (human embryonic lung fibroblast) cell line. […] Cell growth was determined by measuring the optical density (OD) at 540/630 nm with Multiscan EX ELISA reader (Thermo Labsystems, Cheshire, WA, USA). […]
# [2] = test system: Breast cancer cell line MCF-7; assay: MTT antiproliferative assay, MCF-7; format: cell-based, human; conditions: MCF-7, mean of four parallel experiments, read-out: IC50 (µM) ± SD MCF-7
# Procedure: (§1) Breast cancer cell line MCF-7 (ATCC®® HTB-22) and the drug-resistant subline of the human breast cancer MCF-7 (ECACC 86012803; KCR) were purchased from LGC Promochem (Teddington, UK). Both cell lines were cultured in Eagle’s Minimal Essential Medium (EMEM, containing 4.5 g/L glucose) supplemented with a non-essential amino acid mixture, a selection of vitamins, and 10% heat-inactivated fetal bovine serum. In every third passage, 0.56 µg/mL doxorubicin was added to the medium in order to maintain the ABCB1 (P-glycoprotein) expression in KCR cells. A2780 human ovarian cancer cell line (ECACC European Collection of Authentical Cell Culture, Sigma Cat. no. 93112519) and the cisplatin-resistant human ovarian cancer cell line A2780cis (ECACC European Collection of Authentical Cell Culture, Sigma Cat. no. 93112517) were purchased from Merck KGaA (Darmstadt, Germany). The human ovarian cancer cell lines were cultured in RPMI 1640 medium supplemented with 10% heat-inactivated fetal bovine serum. The RPMI 1640 medium of the cisplatin-resistant cell line A2780 was supplemented with 1 µM cisplatin. HeLa (ATCC® CCL-2™) human cervix carcinoma, HTB-26 breast adenocarcinoma, T-47D (ATCC® HTB-133™) ductal carcinoma, and MRC-5 human embryonal lung fibroblast cell lines (ATCC® CCL-171) were purchased from LGC Promochem (Teddington, UK). The cells were cultured in Eagle’s Minimal Essential Medium (EMEM, containing 4.5 g/L glucose) supplemented with a non-essential amino acid mixture, a selection of vitamins, and 10% heat-inactivated fetal bovine serum. HTB-26 cell line was cultured in RPMI 1640 medium supplemented with 10% heat-inactivated fetal bovine serum. T-47D cells were cultured in RPMI 1640 medium supplemented with 10% heat-inactivated fetal bovine serum, 2 mM L-glutamine, 1 mM Na-pyruvate, and 100 mM Hepes. All of the cells were incubated at 37 °C, in a 5% CO2, 95% air atmosphere.
# (§2) The antiproliferative effect of the compounds was determined on the human breast (MCF-7, KCR, T-47D, HTB-26), cervical (HeLa), and ovarian (A2780, A2780cis) cancer cells, and on MRC-5 (human embryonic lung fibroblast) cell line. The adherent cells were cultured in 96-well flat-bottomed microtiter plates, using EMEM supplemented with 10% heat-inactivated fetal bovine serum or RPMI 1640 supplemented with 10% heat-inactivated fetal bovine serum, respectively. The density of the cells was adjusted to 6 × 10^3 cells in 100 μL per well, the cells were seeded for 24 h at 37 °C, 5% CO2, then the medium was removed from the plates and fresh medium (100 μL per well) was added to the cells. The effects of increasing concentrations of compounds on cell proliferation were tested in 96-well flat-bottomed microtiter plates. The compounds were diluted in the appropriate medium, the dilutions of compounds were performed in separate plates and then added to the cells. The starting concentration of the compounds was 100 μM, and two-fold serial dilution was performed (concentration range: 100-0.19 μM). The culture plates were incubated at 37 °C for 72 h; at the end of the incubation period, 20 μL of MTT (thiazolyl blue tetrazolium bromide, Sigma) solution (from a stock solution of 5 mg/mL) was added to each well. After incubation at 37 °C for 4 h, 100 μL of sodium dodecyl sulfate (SDS) (Sigma) solution (10% in 0.01 M HCI) were added to each well and the plates were further incubated at 37 °C overnight. Cell growth was determined by measuring the optical density (OD) at 540/630 nm with Multiscan EX ELISA reader (Thermo Labsystems, Cheshire, WA, USA). Mean IC50 values were obtained by best fitting the dose-dependent inhibition curves in GraphPadPrism5 program (GraphPad Software version 5.00 for Windows, San Diego, CA, USA) from four parallel experiments for each cell line. Results are expressed in terms of IC50, defined as the inhibitory dose that reduces the proliferation of the cells exposed to the tested compounds by 50% [14].
# [3] = test system: cisplatin-resistant human ovarian cancer cell line A2780cis; assay: MTT antiproliferative assay, A2780cis; format: cell-based; conditions: 72 h, mean of four parallel experiments, read-out: IC50 (µM) ± SD A2780cis
# Procedure: as §1, §2
# [4] = test system: KCR, drug-resistant subline of the human breast cancer MCF-7; assay: MTT antiproliferative assay, KCR; format: cell-based; conditions: mean of four parallel experiments, read-out: IC50 (µM) ± SD KCR
# Procedure: as §1, §2
# [5] = test system: MRC-5 human embryonal lung fibroblast cell line; assay: MTT antiproliferative assay, MRC-5 normal cells; format: cell-based; conditions: for IC50: MRC-5 normal fibroblasts, mean of four parallel experiments, read-out: IC50 (µM) ± SD MRC-5
# Procedure: as §1, §2
# [6] = test system: A2780 human ovarian cancer cell line; assay: MTT antiproliferative assay, A2780; format: cell-based; conditions: 72 h, A2780, mean of four parallel experiments, read-out: IC50 (µM) ± SD A2780
# Procedure: as §1, §2
# [7] = test system: HTB-26 breast adenocarcinoma cells; assay: MTT antiproliferative assay, HTB-26; format: cell-based, human; conditions: HTB-26, mean of four parallel experiments, read-out: IC50 (µM) ± SD HTB-26
# Procedure: as §1, §2
# [8] = test system: HeLa human cervix carcinoma cells; assay: MTT antiproliferative assay, HeLa; format: cell-based; conditions: 72 h, mean of four parallel experiments, read-out: IC50 (µM) ± SD HeLa
# Procedure: as §1, §2
# [9] = test system: T-47D ductal carcinoma cells; assay: MTT antiproliferative assay, T-47D; format: cell-based, human; conditions: 72 h, mean of four parallel experiments, read-out: IC50 (µM) ± SD T-47D
# Procedure: as §1, §2
# [10] = test system: hepatitis C (HCV) replication; set-up: method as in PMID 30842319; conditions: cited from earlier work
# Zymoseptoria tritici = test system: Zymoseptoria tritici; set-up: method as in PMID 28484977; conditions: cited from earlier work
SMILES,antiproliferative activity across the cell lines investigated (in words) [1],IC50 ([2]; 72 h) [µM],"IC50 ([2]; Homo sapiens, MCF7, 72 h) [µM]",IC50 [3] [µM],IC50 ([3]; Homo sapiens) [µM],"IC50 ([4]; Homo sapiens, MCF7, 72 h) [µM]","IC50 ([5]; Homo sapiens, MRC5, 72 h) [µM]",IC50 ([6]; Homo sapiens) [µM],"IC50 ([7]; Homo sapiens, HTB26, 72 h) [µM]",IC50 ([8]; Homo sapiens) [µM],"IC50 ([9]; Homo sapiens, T47D) [µM]",IC50 ([4]; 72 h) [µM],IC50 ([5]; 72 h) [µM],IC50 [6] [µM],IC50 ([7]; 72 h) [µM],IC50 [8] [µM],IC50 [9] [µM],inhibition of hepatitis C (HCV) replication (in words) [10],"selectivity: effect on MRC-5 normal lung fibroblasts compared to cancer cell lines (in words) ([5]; 72 h, MRC-5 versus cancer cell lines)",in vitro antifungal activity against Zymoseptoria tritici (in words) (Zymoseptoria tritici)
"C=Cc1cc(O)cc2c1-c1ccc(Oc3cc4c(c(C)c3O)CCc3cc(O)cc(C=C)c3-4)c(C)c1CC2 [Compound 4, maritin D]",substantial antiproliferative activity against all cell lines investigated,14.2 ± 0.3,< 20,13.3 ± 0.1,< 20,16.2 ± 0.6,17.1 ± 3.1,14.1 ± 1.3,25.1 ± 0.3,22.5 ± 1.2,9.1 ± 0.4,–,–,–,–,–,–,–,–,–
"C=Cc1cc(C)cc2c1-c1ccc(O)c(C)c1CC2 [Compound 9, juncunol]",–,–,45.7 ± 2.4,–,52.8 ± 2.4,68.4 ± 2.5,78.4 ± 3.7,43.5 ± 1.1,75 ± 5,76.7 ± 1.8,41.4 ± 5.8,–,–,–,–,–,–,–,–,–
"C=Cc1c(C)c(O)cc2c1-c1ccc(O)c(C)c1CC2 [Compound 5, juncusol]",–,–,–,–,–,–,–,–,–,0.5,25 ± 0.4,–,–,–,–,–,–,–,–,–
"N.N.[Cl][Pt][Cl] [cisplatin, reference compound]",–,0.9,–,7.3 ± 0.2,–,–,–,–,–,–,–,6.5 ± 0.3,0.6,3.6 ± 0.3,20.1 ± 2.3,2.3 ± 0.1,5.9 ± 0.1,–,–,–
C=Cc1c(C)c(O)cc2ccc3c(C)c(O)ccc3c12 [dehydrojuncusol],–,–,–,–,–,–,–,–,–,–,–,–,–,–,–,–,–,novel inhibitor of hepatitis C (HCV) replication,–,–
"C=Cc1cc(O)c(CO)c2c1-c1ccc(O)c(C)c1CC2 [Compound 1, maritin A]",–,–,34.7 ± 3,–,40.1 ± 0.4,57.6 ± 0.7,75.4 ± 1.8,21.5 ± 0.4,48.7 ± 1.6,57 ± 1.3,12.8 ± 0.9,–,–,–,–,–,–,–,less antiproliferative effect on MRC-5 normal lung fibroblasts compared to the other cancer cell lines,–
"C=Cc1c(C)ccc2c1CCc1c-2ccc(O)c1C [Compound 2, maritin B]",–,–,97 ± 0.3,–,> 100,> 100,> 100,> 100,> 100,11 ± 0.9,> 100,–,–,–,–,–,–,–,–,–
"Cc1c(O)ccc2c1CCc1cc(O)cc(C=O)c1-2 [Compound 7, 2,7-dihydroxy-1-methyl-5-aldehyde-9,10-dihydrophenanthrene]",–,–,38 ± 2,–,32.3 ± 2.3,70.6 ± 3.1,71.1 ± 1.3,30 ± 3.6,85.3 ± 4.5,24.7 ± 0.5,26.6 ± 1.1,–,–,–,–,–,–,–,–,–
"C=Cc1cc(O)c(C)c2c1-c1ccc(O)c(C)c1CC2 [Compound 8, 2,7-dihydroxy-1,8-dimethyl-5-vinyl-9,10-dihydrophenanthrene]",–,–,69.5 ± 1.7,–,> 100,> 100,> 100,> 100,> 100,> 100,57 ± 7.1,–,–,–,–,–,–,–,–,–
"C=Cc1cc(O)cc2c1-c1cc(-c3cc4c(c(C)c3O)CCc3cc(O)cc(C=C)c3-4)c(O)c(C)c1CC2 [Compound 11, effususin A]",substantial antiproliferative activity against all cell lines investigated,–,< 20,16.3 ± 0.3,< 20,19.6 ± 0.9,20.1 ± 1.6,25.6 ± 2.4,24.7 ± 2.1,25.2 ± 0.6,6.2 ± 0.1,–,–,–,–,–,–,–,–,–
"C=Cc1cc(O)cc2c1-c1ccc(O)c(C)c1CC2 [Compound 6, effusol]",–,–,–,–,–,–,–,–,57 ± 2.73,2.3 ± 0.7,–,–,–,–,–,–,–,–,–,significant in vitro antifungal activity
"Cc1c(O)cc2ccc3c(C)c(O)cc4c3c2c1C(O)C4 (stereo not drawn) [Compound 3, maritin C]",–,–,–,18.6 ± 0.1,< 20,> 100,15 ± 0.2,23.7 ± 0.1,35.9 ± 1.5,43.2 ± 0.7,17 ± 0.6,–,–,–,–,–,–,–,–,–
